Reference: patent publication US12180207B2 (ARRAY BIOPHARMA INC., priority 2018, dated 2024)

Key:
[1] = biological target: FGFR3 (SEQ ID NO: 5, amino acids 449-759) (Homo sapiens (Human), UniProt P22607); assay: LC/MS FGFR3 kobs assay (covalent protein modification); format: binding; conditions: 500 nM FGFR3, 3 μM compound
Summary of the method: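 Timed reactions were stopped with 0.4% formic acid, and covalent adduct formation was measured by LC/MS on a Q-TOF with deconvolution of protein masses. Modified signal was normalized to DMSO-control unmodified protein at each time point; percent unmodified protein was fit to exponential decay to give kobs.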

[2] = biological target: recombinant human FGFR3 (amino acids R397-T806) (Homo sapiens (Human), UniProt P22607); assay: FGFR3 enzyme activity assay (LanthaScreen TR-FRET); format: biochemical; conditions: 25 μM ATP, 10 min incubation at 22° C., average of multiple determinations if made, read-out: FGFR3 Enz FRET IC50
Summary of the method: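 GST-HIS6-tagged human FGFR3 (R397-T806) was reacted with 100 nM Alexa Fluor 647-Poly-GT substrate and 25 μM ATP plus compound in HEPES/MgCl2/Triton buffer, pH 7.5, 2% DMSO, for 10 min at 22 °C.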

[3] = biological target: phosphorylated FGFR3 (SEQ ID NO: 5, amino acids 449 to 759) (Homo sapiens (Human), UniProt P22607); assay: FGFR enzyme binding assay (HTRF tracer displacement), FGFR3; conditions: 5 nM phosphorylated FGFR3, average of multiple determinations if made
Summary of the method: (§1)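 Compounds were tested for displacement of a tracer from human FGFR kinase in a time-resolved FRET binding format. After 60 minutes at 22° C, signal was read at two wavelengths and converted to percent of control, normalised between untreated wells and 1 μM reference inhibitor.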

[4] = biological target: T1, HEK-293 cells transfected with dox-inducible human wild type FGFR3 (Homo sapiens (Human), UniProt P22607); assay: FGFR3 pFGFR cell assay (ELISA); format: cell-based; conditions: HEK-293 dox-inducible FGFR3, 1 hour compound, 100 ng/ml FGF-acidic
Protocol: FGFR3 pFGFR Cell Assay: • HEK-293 cells transfected with dox-inducible human wild type FGFR3 (SEQ ID NO: 5) were plated in a collagen or poly-D-lysine coated 96 well flat bottom plates at 4×10^5 cells/well in complete DMEM medium containing 10% FBS and 1 μg/ml doxycycline and allowed to attach for 24 h at 37° C., 5% CO2. Cells were treated with compound using 1:3 serial dilutions with a top final concentration of 5 μM. Compound was incubated on cells for 1 hour at 37° C., 5% CO2. Cells were then stimulated with a final concentration of 100 ng/ml human FGF-acidic for 5 minutes at 37° C., 5% CO2. Medium was removed and cells were lysed with lysis buffer containing phosphatase and protease inhibitors. Phospho FGFR3 was measured by ELISA (R&D Systems cat DYC2719). The ELISA captures total FGFR3 and detects total phospho tyrosine. Optical density was measured for each well using a Versamax reader at a wavelength of 450 nm. 100 POC was determined using no test compounds and 0 POC was determined using a control compound. The POC values were fit to a 4-parameter logistic curve as a function of the concentration of the compound, and the IC50 value is the point where the curve crosses 50 POC.

[5] = biological target: recombinant human FGFR2 cytoplasmic domain (amino acids 403-822) (Homo sapiens (Human), UniProt P21802); assay: FGFR2 enzyme activity assay (LanthaScreen TR-FRET); format: biochemical; conditions: 15 μM ATP, 20 min incubation at 22° C., average of multiple determinations if made, read-out: FGFR2 Enz FRET IC50
Summary of the method: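 His-tagged FGFR2 cytoplasmic domain ([…]) with 100 nM Alexa Fluor 647-poly-GT peptide and 15 μM ATP in HEPES/MgCl2/Triton buffer, pH 7.5, 2% DMSO, 20 min at 22 °C. EDTA-quenched, Eu-PY20 antibody added, TR-FRET read after 60 min.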

[6] = biological target: T1, HEK-293 cells transfected with dox-inducible human wild type FGFR3; assay: FGFR3 pERK cell assay; format: cell-based; conditions: HEK-293 dox-inducible FGFR3, 1 hour compound, 100 ng/ml FGF-acidic; maximum concentration 5 μM
Protocol: (§2) FGFR3 pERK Cell Assay: • HEK-293 cells transfected with dox-inducible human wild type FGFR3 (SEQ ID NO: 5) were plated in a collagen or poly-D-lysine coated 96 well flat bottom plates at 4×10^5 cells/well in complete DMEM medium containing 10% FBS and 1 μg/ml doxycycline and allowed to attach for 24 h at 37° C., 5% CO2. Cells were treated with compound using 1:3 serial dilutions with a maximum final concentration of 5 μM. Compound was incubated on cells for 1 hour at 37° C., 5% CO2. Cells were then stimulated with a final concentration of 100 ng/ml human FGF-acidic (R&D Systems Cat number 232-FA/CF) for 5 minutes at 37° C., 5% CO2. Medium was removed, and cells were lysed with lysis buffer containing phosphatase and protease inhibitors. Phospho ERK1/2 was measured using the Meso Scale Discovery sandwich assay (Meso Scale Discovery cat. no. K151DWD). The assay captures phospho ERK1/2 and detects with a sulfo-tagged total ERK1/2 antibody. The chemiluminescent signal was read on the Sector Imager Plate reader. 100 POC was determined using no test compounds and 0 POC was determined using a control compound. The POC values were fit to a 4-parameter logistic curve as a function of the concentration of the compound, and the IC50 value is the point where the curve crosses 50 POC.

[7] = biological target: HEK-293 cells transfected with dox-inducible human wild type FGFR1 (Homo sapiens (Human), UniProt P11362); assay: FGFR1 pERK cell assay; format: cell-based; conditions: HEK-293 dox-inducible FGFR1, 1 hour compound, 100 ng/ml FGF-acidic; maximum concentration 5 μM
Protocol: as §2, with “FGFR1” for “FGFR3”, “doxycycline(dox)-inducible” for “dox-inducible”, “1)” for “5)”, “Dulbecco's Modified Eagle Medium (DMEM)” for “DMEM medium”, “compound” for “compounds”

[8] = biological target: recombinant human FGFR1 catalytic domain (amino acids 308-731) (Homo sapiens (Human), UniProt P11362); assay: FGFR1 enzyme activity assay (LanthaScreen TR-FRET); format: biochemical; conditions: 20 min incubation at 22° C., average of multiple determinations if made, read-out: FGFR1 Enz FRET IC50
Summary of the method: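 His-tagged FGFR1 kinase domain with 100 nM Alexa Fluor 647-poly-GT peptide and ATP in pH 7.5 HEPES/MgCl2 buffer with 2% DMSO, 20 min at 22 °C. Quenched with EDTA plus 2 nM Eu-PY20 antibody and read after 60 min. IC50 comes from a 4-parameter fit of percent of control.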

[9] = biological target: dephosphorylated FGFR1 (SEQ ID NO: 1, amino acids 458 to 765) (Homo sapiens (Human), UniProt P11362); assay: FGFR enzyme binding assay (HTRF tracer displacement), FGFR1; conditions: 5 nM dephosphorylated FGFR1, average of multiple determinations if made
Summary of the method: as §1

[10] = biological target: FGFR1 (SEQ ID NO: 1, amino acids 458-765) (Homo sapiens (Human), UniProt P11362); assay: LC/MS FGFR1 kobs assay (covalent protein modification); format: binding; conditions: 500 nM FGFR1, 3 μM compound
Summary of the method: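 Covalent labeling of FGFR1 kinase domain (aa 458-765) tracked over time by intact-protein LC/MS after formic acid quench. kobs derived by fitting DMSO-normalized percent unmodified FGFR1 to an exponential decay model.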

recombinant human FGFR3 (amino acids R397-T806), sequence (P22607 397-806): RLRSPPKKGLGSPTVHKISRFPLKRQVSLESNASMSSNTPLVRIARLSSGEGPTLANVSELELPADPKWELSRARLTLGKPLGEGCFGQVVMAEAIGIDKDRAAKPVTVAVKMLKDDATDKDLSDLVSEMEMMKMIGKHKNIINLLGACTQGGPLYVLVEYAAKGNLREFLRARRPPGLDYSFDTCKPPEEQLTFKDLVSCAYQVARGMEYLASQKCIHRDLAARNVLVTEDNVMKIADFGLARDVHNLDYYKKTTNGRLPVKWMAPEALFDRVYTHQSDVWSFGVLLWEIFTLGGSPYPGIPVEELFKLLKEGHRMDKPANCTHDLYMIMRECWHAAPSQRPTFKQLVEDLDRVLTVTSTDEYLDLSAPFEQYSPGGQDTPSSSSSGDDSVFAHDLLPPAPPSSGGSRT
HEK-293 cells transfected with dox-inducible human wild type FGFR1, sequence (P11362 22-822): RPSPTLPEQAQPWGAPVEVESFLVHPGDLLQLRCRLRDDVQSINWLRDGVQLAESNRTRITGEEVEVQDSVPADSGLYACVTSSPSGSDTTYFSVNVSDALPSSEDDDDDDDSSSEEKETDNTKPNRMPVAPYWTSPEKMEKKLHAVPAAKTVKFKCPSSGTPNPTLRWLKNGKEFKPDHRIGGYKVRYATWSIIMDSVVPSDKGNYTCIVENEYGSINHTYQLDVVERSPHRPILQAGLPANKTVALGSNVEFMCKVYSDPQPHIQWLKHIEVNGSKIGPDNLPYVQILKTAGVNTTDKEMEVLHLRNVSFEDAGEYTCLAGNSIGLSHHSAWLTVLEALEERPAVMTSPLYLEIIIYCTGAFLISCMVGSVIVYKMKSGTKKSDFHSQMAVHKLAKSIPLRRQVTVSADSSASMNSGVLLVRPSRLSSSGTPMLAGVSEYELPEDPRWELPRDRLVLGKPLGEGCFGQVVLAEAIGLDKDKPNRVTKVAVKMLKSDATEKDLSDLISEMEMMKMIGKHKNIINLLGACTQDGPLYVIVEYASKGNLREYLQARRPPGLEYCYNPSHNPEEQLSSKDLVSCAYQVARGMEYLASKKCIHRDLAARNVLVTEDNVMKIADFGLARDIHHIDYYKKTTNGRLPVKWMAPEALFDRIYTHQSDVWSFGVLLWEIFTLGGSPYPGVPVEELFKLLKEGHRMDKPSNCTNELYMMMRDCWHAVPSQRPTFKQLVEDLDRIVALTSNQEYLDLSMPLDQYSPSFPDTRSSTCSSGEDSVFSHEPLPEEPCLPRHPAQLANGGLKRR
recombinant human FGFR2 cytoplasmic domain (amino acids 403-822), sequence (P21802 402-821): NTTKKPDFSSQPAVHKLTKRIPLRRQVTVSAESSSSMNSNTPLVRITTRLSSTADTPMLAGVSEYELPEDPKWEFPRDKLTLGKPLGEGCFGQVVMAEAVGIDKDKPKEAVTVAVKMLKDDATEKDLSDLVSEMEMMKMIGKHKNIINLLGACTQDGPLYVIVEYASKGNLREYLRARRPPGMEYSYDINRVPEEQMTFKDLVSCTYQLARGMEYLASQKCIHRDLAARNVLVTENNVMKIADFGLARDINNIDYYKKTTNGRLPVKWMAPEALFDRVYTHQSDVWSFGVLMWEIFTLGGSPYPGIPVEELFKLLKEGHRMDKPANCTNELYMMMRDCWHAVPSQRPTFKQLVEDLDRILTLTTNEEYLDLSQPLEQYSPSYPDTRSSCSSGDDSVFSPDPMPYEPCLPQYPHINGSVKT
phosphorylated FGFR3 (SEQ ID NO: 5, amino acids 449 to 759), sequence (P22607 449-759): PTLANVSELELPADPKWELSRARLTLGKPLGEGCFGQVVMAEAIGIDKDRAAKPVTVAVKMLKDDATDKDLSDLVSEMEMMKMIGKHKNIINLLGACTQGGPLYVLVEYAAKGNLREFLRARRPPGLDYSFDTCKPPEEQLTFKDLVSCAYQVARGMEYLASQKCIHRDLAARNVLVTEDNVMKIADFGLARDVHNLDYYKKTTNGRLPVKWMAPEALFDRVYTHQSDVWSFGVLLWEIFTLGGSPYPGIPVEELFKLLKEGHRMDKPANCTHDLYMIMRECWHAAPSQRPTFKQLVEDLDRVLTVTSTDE
FGFR3 (SEQ ID NO: 5, amino acids 449-759), sequence (P22607 449-759): as above
T1 sequence (P22607 23-806): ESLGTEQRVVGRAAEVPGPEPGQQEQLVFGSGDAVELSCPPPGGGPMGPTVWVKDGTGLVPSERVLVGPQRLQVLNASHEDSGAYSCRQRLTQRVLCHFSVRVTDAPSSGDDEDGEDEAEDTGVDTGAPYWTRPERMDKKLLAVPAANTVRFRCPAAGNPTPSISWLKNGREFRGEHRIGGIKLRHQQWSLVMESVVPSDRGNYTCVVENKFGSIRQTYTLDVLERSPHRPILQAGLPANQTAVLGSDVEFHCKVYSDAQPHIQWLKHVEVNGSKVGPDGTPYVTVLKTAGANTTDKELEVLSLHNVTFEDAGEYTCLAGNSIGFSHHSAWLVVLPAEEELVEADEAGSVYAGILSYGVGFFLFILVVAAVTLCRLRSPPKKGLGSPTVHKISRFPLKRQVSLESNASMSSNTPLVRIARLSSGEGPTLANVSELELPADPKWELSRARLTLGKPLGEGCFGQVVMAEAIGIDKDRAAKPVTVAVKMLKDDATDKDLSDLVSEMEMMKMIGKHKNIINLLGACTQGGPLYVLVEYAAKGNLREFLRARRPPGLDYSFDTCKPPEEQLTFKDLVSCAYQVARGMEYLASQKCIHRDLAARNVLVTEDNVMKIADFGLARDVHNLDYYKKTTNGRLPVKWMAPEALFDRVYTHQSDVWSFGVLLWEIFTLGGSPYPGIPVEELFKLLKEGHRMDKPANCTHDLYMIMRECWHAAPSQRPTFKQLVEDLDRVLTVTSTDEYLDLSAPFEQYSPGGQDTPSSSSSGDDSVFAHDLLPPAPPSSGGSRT
recombinant human FGFR1 catalytic domain (amino acids 308-731), sequence (P11362 other isoform, or with tags, fused parts or gaps): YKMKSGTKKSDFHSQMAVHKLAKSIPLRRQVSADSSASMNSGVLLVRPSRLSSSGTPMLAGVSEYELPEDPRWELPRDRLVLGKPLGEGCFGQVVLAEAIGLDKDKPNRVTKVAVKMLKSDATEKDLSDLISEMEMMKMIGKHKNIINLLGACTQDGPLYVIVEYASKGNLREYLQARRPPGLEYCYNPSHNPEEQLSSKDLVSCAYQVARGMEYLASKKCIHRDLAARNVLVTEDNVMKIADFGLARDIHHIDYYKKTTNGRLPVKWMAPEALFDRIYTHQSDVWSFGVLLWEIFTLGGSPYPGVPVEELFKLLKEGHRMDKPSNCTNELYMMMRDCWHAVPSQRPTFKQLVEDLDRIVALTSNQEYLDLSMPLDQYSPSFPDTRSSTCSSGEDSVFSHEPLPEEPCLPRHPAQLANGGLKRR
dephosphorylated FGFR1 (SEQ ID NO: 1, amino acids 458 to 765), sequence (P11362 458-765): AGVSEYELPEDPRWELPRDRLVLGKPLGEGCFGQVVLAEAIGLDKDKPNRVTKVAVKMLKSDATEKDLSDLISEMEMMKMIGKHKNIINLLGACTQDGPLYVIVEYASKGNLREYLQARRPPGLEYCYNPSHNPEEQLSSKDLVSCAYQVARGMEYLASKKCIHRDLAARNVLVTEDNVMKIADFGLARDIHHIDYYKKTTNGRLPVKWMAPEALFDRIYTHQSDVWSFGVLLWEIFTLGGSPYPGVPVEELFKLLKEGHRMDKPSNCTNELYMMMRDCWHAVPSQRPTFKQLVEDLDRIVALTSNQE
FGFR1 (SEQ ID NO: 1, amino acids 458-765), sequence (P11362 458-765): as above

| Structure (SMILES) | FGFR3 Enz kobs [1] | IC50 [2] | IC50 [3] | IC50 [4] | IC50 [5] | also measured |
| --- | --- | --- | --- | --- | --- | --- |
| C=CC(=O)N1CCC(C(=O)N2CCC(n3cc(-c4cc(OC)c5c(C#N)cnn5c4)cn3)CC2)CC1 [Example 12, 6-(1-(1-(1-acryloylpiperidine-4-carbonyl)piperidin-4-yl)-1H-pyrazol-4-yl)-4-methoxypyrazolo[1,5-a]pyridine-3-carbonitrile] | 0.00231 min⁻¹ | 3 nM | 32 nM | 242 nM | 3 nM | – |
| C=CC(=O)Nc1ccc(S(=O)(=O)N2CCC(n3cc(-c4cc(OC)c5c(C#N)cnn5c4)cn3)CC2)cc1 [Example 49, N-(4-((4-(4-(3-cyano-4-methoxypyrazolo[1,5-a]pyridin-6-yl)-1H-pyrazol-1-yl)piperidin-1-yl)sulfonyl)phenyl)acryl-amide (2,2,2-trifluoroacetate)] | – | – | – | 20 nM | – | – |
| C=C(F)C(=O)N1CC(C(=O)N2CCC(n3cc(-c4cc(OC)c5c(C#N)cnn5c4)cn3)CC2)C1 [Example 140, 6-(1-(1-(1-(2-fluoroacryloyl)azet-idine-3-carbonyl)piperidin-4-yl)-1H-pyrazol-4-yl)-4-methoxypyrazolo [1,5-a]pyridine-3-carbonitrile] | – | – | – | – | – | IC50 [6]: 105 nM; IC50 [7]: 206 nM |
| COc1cc(-c2cnn(C3CN(CC4CN(C(=O)/C=C/CN(C)C)C4)C3)c2)cn2ncc(C#N)c12 [Example 148] | – | – | – | 351 nM | – | – |
| COc1cc(-c2cnn(C3CN(C(=O)C4CN(C(=O)/C=C/CN(C)C)C4)C3)c2)cn2ncc(C#N)c12 [Example 150] | – | – | – | 2320 nM | – | – |
| C=CC(=O)N1CCC(NC(=O)c2ccc(-c3cc(OC)c4c(C#N)cnn4c3)cc2)CC1 [Example 166, N-(1-acryloylpiperidin-4-yl)-4-(3-cyano-4-methoxypyrazolo [1,5-a]pyridin-6-yl)benzamide] | 0.00177 min⁻¹ | 14 nM | 48 nM | – | 15 nM | IC50 [8]: 61 nM; IC50 [9]: 129 nM; FGFR1 Enz kobs [10]: 0.00032 min⁻¹ |
| C=CC(=O)NC1CCC(NC(=O)c2ccc(-c3cc(OC)c4c(C#N)cnn4c3)cc2)CC1 (centres unmarked) [Example 167, N-(4-acrylamido-cyclohexyl)-4-(3-cyano-4-methoxypyrazolo [1,5-a]pyridin-6-yl)benzamide] | 0.00039 min⁻¹ | 17 nM | 192 nM | – | 18 nM | IC50 [8]: 68 nM; IC50 [9]: 1120 nM; FGFR1 Enz kobs [10]: 0.00004 min⁻¹ |
| C=CS(=O)(=O)N1CC[C@@H](C(=O)N2CCC(n3cc(-c4cc(OC)c5c(C#N)cnn5c4)cn3)CC2)C1 [Example 185] | 0.06081 min⁻¹ | 3 nM | 4 nM | 12 nM | 5 nM | – |
| C=CS(=O)(=O)N[C@H]1CC[C@H](C(=O)N2CCC(n3cc(-c4cc(OC)c5c(C#N)cnn5c4)cn3)CC2)CC1 [Example 187, N-((1r,4r)-4-(4-(4-(3-cyano-4-methoxypyrazolo[1,5-a]pyridin-6-yl)-1H-pyrazol-1-yl)piperidine-1-carbonyl)cyclohexyl) ethenesulfonamide] | – | – | – | 74 nM | – | – |
| C=CS(=O)(=O)N1CC[C@H](C(=O)N2CCC(n3cc(-c4cc(OC)c5c(C#N)cnn5c4)cn3)CC2)C1 [Example 189, (S)-4-methoxy-6-(1-(1-(1-(vinylsulfonyl)pyrrol-idine-3-carbonyl)piperidin-4-yl)-1H-pyrazol-4-yl)pyrazolo[1,5-a]pyridine-3-carbonitrile] | 0.0728 min⁻¹ | 4 nM | 3 nM | 9 nM | 3 nM | – |
| C=CS(=O)(=O)N[C@H]1C[C@@H](C(=O)N2CCC(n3cc(-c4cc(OC)c5c(C#N)cnn5c4)cn3)CC2)C1 [Example 193, N-((1s,3s)-3-(4-(4-(3-cyano-4-methoxypyrazolo[1,5-a]pyridin-6-yl)-1H-pyrazol-1-yl)piperidine-1-carbonyl)cyclobutyl) ethenesulfonamide] | – | – | – | – | – | IC50 [7]: 328 nM |
| C=CS(=O)(=O)N[C@H]1C[C@H](C(=O)N2CCC(n3cc(-c4cc(OC)c5c(C#N)cnn5c4)cn3)CC2)C1 [Example 194, N-((1r,3r)-3-(4-(4-(3-cyano-4-methoxypyrazolo[1,5-a]pyridin-6-yl)-1H-pyrazol-1-yl)piperidine-1-carbonyl)cyclobutyl) ethenesulfonamide] | – | – | – | – | – | IC50 [7]: 401 nM |
| C=CS(=O)(=O)Nc1ccc(C(=O)N2CCC(n3cc(-c4cc(OC)c5c(C#N)cnn5c4)cn3)CC2)cc1 [Example 196, N-(4-(4-(4-(3-cyano-4-methoxypyrazolo[1,5-a]pyridin-6-yl)-1H-pyrazol-1-yl)piperidine-1-carbonyl)phenyl)ethenesulfonamide] | – | – | – | 26 nM | – | – |
